Test results as given in PMC7127791 (Bioorganic & Medicinal Chemistry Letters, 2016).
Entries after “also recorded” stand apart in the source; their conditions may differ.

Assays:
MDCK cells = experiment: Cytotoxicity; details: Madin-Darby canine kidney cells; microscopy
Para-influenza-3 virus = experiment: organism not typed; assay type: cell-based, Parainfluenza-3 virus; details: Vero, read-out: Antiviral EC50 Para-influenza-3 virus
[1] = tested on: broad and diverse panel of DNA and RNA viruses; assay type: cell-based
Reovirus-1 = experiment: organism not typed; assay type: cell-based; details: Vero, read-out: Antiviral EC50 Reovirus-1
Vero cells = experiment: Cytotoxicity; details: minimal cytotoxic concentration by microscopical inspection
HeLa cells = experiment: Cytotoxicity; details: HeLa cervix carcinoma cells; microscopy
HEL cells = experiment: Cytotoxicity; details: human embryonic lung fibroblast cells; microscopy
varicella zoster virus = details: human
[2] = tested on: Rift Valley fever virus (MP-12 strain); assay type: cell-based
Punta Toro virus [3] = assay type: cell-based
Punta Toro virus [4] = assay type: cell-based; remark: listed apart in the source
other cell lines tested = experiment: Cytotoxicity in the other mammalian cell lines tested; details: 100 μM compound concentration; cell lines other than Vero, HEL and MT4

| Structure (SMILES) | Cytotoxicity MCC MDCK (MDCK cells) [µM] | EC50 (Para-influenza-3 virus) [µM] | EC50 (Reovirus-1) [µM] | Cytotoxicity MCC (Vero cells) [µM] | Cytotoxicity MCC HeLa (HeLa cells) | Cytotoxicity MCC HEL (HEL cells) [µM] | further results |
| --- | --- | --- | --- | --- | --- | --- | --- |
| CCOC(=O)C1=C(C)NC(=O)NC1c1ccccc1Cl (centres unmarked) [Compound 4b, Ethyl 4-(2-chlorophenyl)-6-methyl-2-oxo-1,2,3,4-tetrahydropyrimidine-5-carboxylate] | >100 | > 100 | > 100 | >100 | >100 µM | >100 | antiviral activity against the virus panel (in words) [1]: no antiviral activity |
| CCOC(=O)C1=C(C)NC(=O)NC1c1ccc(O)cc1 (centres unmarked) [Compound 4e, Ethyl 4-(4-hydroxyphenyl)-6-methyl-2-oxo-1,2,3,4-tetrahydropyrimidine-5-carboxylate] | >100 | > 100 | > 100 | >100 | >100 µM | >100 | – |
| CCOC(=O)C1=C(C)NC(=O)NC1c1ccc(N(C)C)cc1 (centres unmarked) [Compound 4g, Ethyl 4-[4-(dimethylamino)phenyl]-6-methyl-2-oxo-1,2,3,4-tetrahydropyrimidine-5-carboxylate] | >100 | – | – | 100 | >100 µM | >100 | – |
| CCOC(=O)C1=C(C)NC(=O)NC1/C=C/c1ccccc1 (centres unmarked) [Compound 4h, Ethyl 6-methyl-2-oxo-4-[(E)-2-phenylethenyl]-1,2,3,4-tetrahydropyrimidine-5-carboxylate] | >100 | > 100 | > 100 | 100 | ⩾100 μM | >100 | MCC reported with the varicella zoster virus EC50 (varicella zoster virus): 100 µM |
| CCOC(=O)C1=C(C)NC(=O)NC1c1cccs1 (centres unmarked) [Compound 4i, Ethyl 6-methyl-2-oxo-4-(thiophen-2-yl)-1,2,3,4-tetrahydropyrimidine-5-carboxylate] | >100 | – | – | – | >100 µM | – | – |
| CCOC(=O)C1=C(C)NC(=O)NC1 [Compound 4j, Ethyl 6-methyl-2-oxo-1,2,3,4-tetrahydropyrimidine-5-carboxylate] | >100 | – | – | – | >100 µM | – | – |
| CCOC(=O)C1=C(C)NC(=O)NC1C (centres unmarked) [Compound 4k, Ethyl 4,6-dimethyl-2-oxo-1,2,3,4-tetrahydropyrimidine-5-carboxylate] | >100 | – | – | – | >100 µM | – | – |
| CCOC(=O)C1=C(C)NC(=O)NC1CC(C)C (centres unmarked) [Compound 4l, Ethyl 6-methyl-4-(2-methylpropyl)-2-oxo-1,2,3,4-tetrahydropyrimidine-5-carboxylate] | >100 | – | – | >100 | >100 µM | >100 | – |
| CCCCCCCCCCCC1NC(=O)NC(C)=C1C(=O)OCC (centres unmarked) [Compound 4m, Ethyl 6-methyl-2-oxo-4-undecyl-1,2,3,4-tetrahydro-5-pyrimidinecarboxylate] | >100 | > 100 | > 100 | – | >100 µM | 100 | activity against Rift Valley fever virus (in words) [2]: negligible; reduction in RVFV-induced CPE [2]: about 40%; 50% inhibition of RVFV at 100 μM (in words) ([2]; 100 μM): unable to achieve 50% inhibition; antiviral activity against the virus panel (in words) [1]: did not have antiviral activity against all other viruses tested; activity against PTV in HeLa cells (in words) (Punta Toro virus [3]): inactive; activity against Punta Toro virus (in words) (Punta Toro virus [4]): selective and potent inhibitor; also recorded: selective and potent antiviral activity; also recorded: potent and selective inhibitor; times more potent than dextran sulphate (DS-10000) (Punta Toro virus [4]): approximately 7 times; times more potent than mycophenolic acid (Punta Toro virus [4]): approximately 7 times; toxicity in the other cell lines tested (in words) (other cell lines tested): no toxicity |
| CCOC(=O)C1C2NC(=O)NC1(C)Oc1ccccc12 (centres unmarked) [Compound 5, Ethyl 9-methyl-11-oxo-8-oxa-10,12-diazatricyclo[7.3.1.0^2,7]trideca-2,4,6-triene-13-carboxylate] | >100 | > 100 | > 100 | >100 | >100 µM | >100 | – |
| NC(=O)c1ncn([C@@H]2O[C@H](CO)[C@@H](O)[C@H]2O)n1 [Ribavirin, reference compound] | – | – | > 250 | >250 | – | – | – |
